# Legend:
# bedstraw = assay: Test B pre/postemergence bedstraw; assay type: in vivo, Galium aparine
# Method in brief: (§1)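 Herbicidal effect was estimated by eye on a ten-point control scale after plants spent twelve to sixteen days in a greenhouse following soil or foliar treatment. Foliar sprays targeted plants at one to four leaves; all doses were formulated in a non-phytotoxic solvent with surfactant.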
# blackgrass = assay: Test B pre/postemergence blackgrass; assay type: in vivo, Alopecurus myosuroides
# Method in brief: as §1
# surinam grass = assay: Test B pre/postemergence surinam grass; assay type: in vivo, Brachiaria decumbens
# Method in brief: as §1
# cocklebur = assay: Test B pre/postemergence cocklebur; assay type: in vivo, Xanthium strumarium
# Method in brief: as §1
# corn = assay: Test B pre/postemergence corn; assay type: in vivo, Zea mays
# Method in brief: as §1
# crabgrass = assay: Test B pre/postemergence crabgrass; assay type: in vivo, Digitaria sanguinalis
# Method in brief: as §1
# giant foxtail = assay: Test B pre/postemergence giant foxtail; assay type: in vivo, Setaria faberii
# Method in brief: as §1
# morningglory = assay: Test B pre/postemergence morningglory; assay type: in vivo, Ipomoea hederacea
# Method in brief: as §1
# pigweed = assay: Test B pre/postemergence pigweed; assay type: in vivo, Amaranthus retroflexus
# Method in brief: as §1
# [1] = Postemergence, Rate 62 g/ha, scale of 0 to 10, 0 is no effect, 10 is complete control
# [2] = Postemergence, Rate 125 g/ha, scale 0 to 10, 0 is no effect, 10 is complete control
# [3] = Postemergence, Rate 500 g/ha, scale 0 to 10, 0 is no effect, 10 is complete control
# [4] = Preemergence, Rate 62 g/ha, scale 0 to 10 (0 no effect, 10 complete control)
# [5] = Rate 250 g/ha, Postemergence, scale of 0 to 10 where 0 is no effect and 10 is complete control
# [6] = Preemergence, Rate 125 g/ha, scale 0 to 10, 0 is no effect, 10 is complete control
# [7] = Preemergence, Rate 500 g/ha, scale of 0 to 10 where 0 is no effect and 10 is complete control
smiles,measurement,setting,value
C=CCCCn1c(=O)on(C(=O)N(c2ccc(Cl)cc2)C(C)C)c1=O [Compound 546],Bedstraw plant response rating,bedstraw; [1],0
same,Bedstraw plant response rating,bedstraw; [2],9
same,"Plant response rating, Bedstraw",bedstraw; [3],9
same,Bedstraw plant response rating,bedstraw; [4],0
same,Bedstraw plant response rating (0 to 10 scale),"bedstraw; Preemergence, Rate 250 g/ha",8
same,"Plant response rating, Bedstraw",bedstraw; [5],9
same,Blackgrass plant response rating,blackgrass; [1],0
same,Blackgrass plant response rating,blackgrass; [2],0
same,"Plant response rating, Blackgrass",blackgrass; [3],6
same,Blackgrass plant response rating,blackgrass; [4],0
same,Blackgrass plant response rating,blackgrass; [6],0
same,Blackgrass plant response rating (0 to 10 scale),"blackgrass; Preemergence, Rate 250 g/ha",0
same,Blackgrass plant response rating,blackgrass; [7],3
same,"Plant response rating, Blackgrass",blackgrass; [5],3
same,B. signalgrass plant response rating,surinam grass; [1],0
same,B. signalgrass plant response rating,surinam grass; [2],0
same,"Plant response rating, B. signalgrass",surinam grass; [3],0
same,B. signalgrass plant response rating,surinam grass; [4],0
same,"B. signalgrass plant response rating (0 to 10 scale, 0 is no effect, 10 is complete control)","surinam grass; Preemergence, Rate 250 g/ha",0
same,B. signalgrass plant response rating,surinam grass; [7],2
same,"Plant response rating, B. signalgrass",surinam grass; [5],0
same,Cocklebur plant response rating,cocklebur; [1],0
same,Cocklebur plant response rating,cocklebur; [2],0
same,"Plant response rating, Cocklebur",cocklebur; [3],0
same,Cocklebur plant response rating,cocklebur; [4],0
same,Cocklebur plant response rating,cocklebur; [6],0
same,Cocklebur plant response rating (0 to 10 scale),"cocklebur; Preemergence, Rate 250 g/ha",0
same,Cocklebur plant response rating,cocklebur; [7],0
same,"Plant response rating, Cocklebur",cocklebur; [5],0
same,Corn plant response rating,corn; [1],0
same,Corn plant response rating,corn; [2],0
same,"Plant response rating, Corn",corn; [3],0
same,Corn plant response rating,corn; [4],0
same,Corn plant response rating,corn; [6],0
same,Corn plant response rating (0 to 10 scale),"corn; Preemergence, Rate 250 g/ha",0
same,Corn plant response rating,corn; [7],0
same,"Plant response rating, Corn",corn; [5],0
same,Crabgrass plant response rating,crabgrass; [1],1
same,Crabgrass plant response rating,crabgrass; [2],7
same,"Plant response rating, Crabgrass",crabgrass; [3],10
same,Crabgrass plant response rating,crabgrass; [4],7
same,Crabgrass plant response rating,crabgrass; [6],7
same,Crabgrass plant response rating (0 to 10 scale),"crabgrass; Preemergence, Rate 250 g/ha",10
same,Crabgrass plant response rating,crabgrass; [7],10
same,"Plant response rating, Crabgrass",crabgrass; [5],7
same,Giant foxtail plant response rating,giant foxtail; [1],0
same,"Plant response rating, Giant foxtail",giant foxtail; [3],7
same,Giant foxtail plant response rating,giant foxtail; [6],4
same,Giant foxtail plant response rating (0 to 10 scale),"giant foxtail; Preemergence, Rate 250 g/ha",10
same,Giant foxtail plant response rating,giant foxtail; [7],10
same,"Plant response rating, Giant foxtail",giant foxtail; [5],4
same,Morningglory plant response rating,morningglory; [1],0
same,Morningglory plant response rating,morningglory; [2],4
same,"Plant response rating, Morningglory",morningglory; [3],10
same,Morningglory plant response rating,morningglory; [4],0
same,Morningglory plant response rating,morningglory; [6],0
same,Morningglory plant response rating (0 to 10 scale),"morningglory; Preemergence, Rate 250 g/ha",0
same,Morningglory plant response rating,morningglory; [7],0
same,"Plant response rating, Morningglory",morningglory; [5],5
same,Redroot pigweed plant response rating,pigweed; [1],0
same,"Plant response rating, Redroot pigweed",pigweed; [3],3
same,Redroot pigweed plant response rating,pigweed; [6],3
same,Redroot pigweed plant response rating (0 to 10 scale),"pigweed; Preemergence, Rate 250 g/ha",10
